Measured values published in PMC9276671, “A first-in-human Phase I dose-escalation trial of the novel therapeutic peptide, ALM201, demonstrates a favourable safety profile in unselected patients with ovarian cancer and other advanced solid tumours” (British Journal of Cancer, 2022).
No end group written: not given here.

Assay: Plasma pharmacokinetics of ALM201 in Phase I patients (validated LC-MS/MS, Phoenix WinNonlin)
Conditions: human, plasma, sc; for Tmax: median; for Tmax / AUC(0-t) / Cmax: plasma LC-MS/MS; for AUC(0-t): AUC0-t; for AUC(0-t) / Cmax: Gmean (CV); for level at 0.25 h / level at 0.75 h / level at 1.5 h / level at 2 h / level at 3 h / level at 4 h / level at 5 h / level at 6 h / level at 0.5 h / level at 1 h / level at 3.5 h: Plasma concentration, geometric mean (CV%), LC-MS/MS; for level at 0.25 h: day 1 cycle 1, 0.25 h after dosing; for level at 0.75 h: day 1 cycle 1, 0.75 h after dosing; for level at 3 h: day 1 cycle 1, 3 h after dosing; for level at 4 h: day 1 cycle 1, 4 h after dosing; for level at 6 h: day 1 cycle 1, 6 h after dosing
[1] = 100 mg, 100 mg SC, day 1 cycle 1, n = 4
[2] = 100 mg, 100 mg SC, day 3 cycle 1, n = 4
[3] = 100 mg, 100 mg SC, day 18 cycle 1, n = 2, CV not calculated
[4] = 100 mg, 100 mg SC, day 18 cycle 2, n = 1
[5] = 160 mg, 160 mg SC, day 1 cycle 1, n = 3
[6] = 160 mg, 160 mg SC, day 3 cycle 1, n = 3
[7] = 160 mg, 160 mg SC, day 18 cycle 1, n = 3
[8] = 160 mg, 160 mg SC, day 18 cycle 2, n = 1
[9] = 200 mg, 200 mg SC, day 1 cycle 1, n = 4
[10] = 200 mg, 200 mg SC, day 3 cycle 1, n = 4
[11] = 200 mg, 200 mg SC, day 18 cycle 1, n = 3
[12] = 200 mg, 200 mg SC, day 18 cycle 4, n = 2, CV not calculated

IRQQPRDPPTETLELEVSPDPAS [ALM201] showed a Tmax (80 mg, 80 mg SC, day 18 cycle 2, n = 1) of 3.5 h, an AUC(0-t) [1] of 6280 ng·h/mL and an AUC(0-t) [2] of 8870 ng·h/mL. The AUC(0-t) [3] was 8100 ng·h/mL, the AUC(0-t) [4] was 5930 ng·h/mL and the Cmax [1] was 1810 ng/mL. The Cmax [2] was 2750 ng/mL, the Cmax [3] was 2330 ng/mL and the Cmax [4] was 1790 ng/mL. For the same sequence, the level at 0.25 h (100 mg, 100 mg SC, n = 4) was 492 ng/mL, the level at 0.75 h (100 mg, 100 mg SC, n = 4) was 1220 ng/mL and the level at 1.5 h (100 mg, 100 mg SC, day 1 cycle 1, 1.5 h after dosing, n = 4) was 1810 ng/mL. For the same sequence, the level at 2 h (100 mg, 100 mg SC, day 1 cycle 1, 2 h after dosing, n = 4) was 1590 ng/mL, the level at 3 h (100 mg, 100 mg SC, n = 4) was 1150 ng/mL and the level at 4 h (100 mg, 100 mg SC, n = 4) was 922 ng/mL. For the same sequence, the level at 5 h (100 mg, 100 mg SC, day 1 cycle 1, 5 h after dosing, n = 4, NQ value substituted with 100 ng/mL) was 664 ng/mL, the level at 6 h (100 mg, 100 mg SC, n = 4, NQ value substituted with 100 ng/mL) was 560 ng/mL and the level at 0.5 h (100 mg, 100 mg SC, day 3 cycle 1, 0.5 h after dosing, n = 4) was 1730 ng/mL. The level at 1 h (100 mg, 100 mg SC, day 3 cycle 1, 1 h after dosing, n = 4) was 2100 ng/mL, the level at 1.5 h (100 mg, 100 mg SC, day 3 cycle 1, 1.5 h after dosing, n = 4) was 2530 ng/mL and the level at 2 h (100 mg, 100 mg SC, day 3 cycle 1, 2 h after dosing, n = 4) was 2400 ng/mL. The level at 3.5 h (100 mg, 100 mg SC, day 3 cycle 1, 3.5 h after dosing, n = 4) was 1690 ng/mL, the level at 5 h (100 mg, 100 mg SC, day 3 cycle 1, 5 h after dosing, n = 4) was 928 ng/mL and the level at 0.5 h (100 mg, 100 mg SC, day 18 cycle 1, 0.5 h after dosing, n = 2) was 1890 ng/mL. The level at 1 h (100 mg, 100 mg SC, day 18 cycle 1, 1 h after dosing, n = 2) was 1840 ng/mL, the level at 1.5 h (100 mg, 100 mg SC, day 18 cycle 1, 1.5 h after dosing, n = 2) was 2210 ng/mL and the level at 2 h (100 mg, 100 mg SC, day 18 cycle 1, 2 h after dosing, n = 2) was 2130 ng/mL. It also gave a level at 3.5 h (100 mg, 100 mg SC, day 18 cycle 1, 3.5 h after dosing, n = 2) of 1490 ng/mL, a level at 5 h (100 mg, 100 mg SC, day 18 cycle 1, 5 h after dosing, n = 2) of 961 ng/mL and a level at 0.5 h (100 mg, 100 mg SC, day 18 cycle 2, 0.5 h after dosing, n = 1) of 1060 ng/mL. For the same sequence, the level at 1 h (100 mg, 100 mg SC, day 18 cycle 2, 1 h after dosing, n = 1) was 1790 ng/mL, the level at 1.5 h (100 mg, 100 mg SC, day 18 cycle 2, 1.5 h after dosing, n = 1) was 1710 ng/mL and the level at 2 h (100 mg, 100 mg SC, day 18 cycle 2, 2 h after dosing, n = 1) was 1570 ng/mL. The level at 3.5 h (100 mg, 100 mg SC, day 18 cycle 2, 3.5 h after dosing, n = 1) was 1180 ng/mL, the Tmax [1] was 1.5 h and the Tmax [2] was 1.61 h. For the same sequence, the Tmax (100 mg, 100 mg SC, day 18 cycle 1, n = 2) was 1.9 h, the Tmax [4] was 1.02 h and the AUC(0-t) [5] was 6510 ng·h/mL. The AUC(0-t) [6] was 5100 ng·h/mL, the AUC(0-t) [7] was 4930 ng·h/mL and the AUC(0-t) [8] was 5710 ng·h/mL. It also gave a Cmax [5] of 1990 ng/mL, a Cmax [6] of 1490 ng/mL and a Cmax [7] of 1350 ng/mL. The Cmax [8] was 1870 ng/mL, the level at 0.25 h (160 mg, 160 mg SC, n = 3) was 833 ng/mL and the level at 0.75 h (160 mg, 160 mg SC, n = 3) was 1570 ng/mL. It also gave a level at 1.5 h (160 mg, 160 mg SC, day 1 cycle 1, 1.5 h after dosing, n = 3) of 1670 ng/mL, a level at 2 h (160 mg, 160 mg SC, day 1 cycle 1, 2 h after dosing, n = 3) of 1480 ng/mL and a level at 3 h (160 mg, 160 mg SC, n = 3) of 1280 ng/mL. It also gave a level at 4 h (160 mg, 160 mg SC, n = 3) of 866 ng/mL, a level at 5 h (160 mg, 160 mg SC, day 1 cycle 1, 5 h after dosing, n = 3) of 510 ng/mL and a level at 6 h (160 mg, 160 mg SC, n = 3) of 283 ng/mL. For the same sequence, the level at 0.5 h (160 mg, 160 mg SC, day 3 cycle 1, 0.5 h after dosing, n = 3) was 956 ng/mL, the level at 1 h (160 mg, 160 mg SC, day 3 cycle 1, 1 h after dosing, n = 3) was 1270 ng/mL and the level at 1.5 h (160 mg, 160 mg SC, day 3 cycle 1, 1.5 h after dosing, n = 3) was 1460 ng/mL. For the same sequence, the level at 2 h (160 mg, 160 mg SC, day 3 cycle 1, 2 h after dosing, n = 3) was 1350 ng/mL, the level at 3.5 h (160 mg, 160 mg SC, day 3 cycle 1, 3.5 h after dosing, n = 3) was 926 ng/mL and the level at 5 h (160 mg, 160 mg SC, day 3 cycle 1, 5 h after dosing, n = 3) was 613 ng/mL. It also gave a level at 0.5 h (160 mg, 160 mg SC, day 18 cycle 1, 0.5 h after dosing, n = 3) of 940 ng/mL, a level at 1 h (160 mg, 160 mg SC, day 18 cycle 1, 1 h after dosing, n = 3) of 1150 ng/mL and a level at 1.5 h (160 mg, 160 mg SC, day 18 cycle 1, 1.5 h after dosing, n = 3) of 1280 ng/mL. For the same sequence, the level at 2 h (160 mg, 160 mg SC, day 18 cycle 1, 2 h after dosing, n = 3) was 1200 ng/mL, the level at 3.5 h (160 mg, 160 mg SC, day 18 cycle 1, 3.5 h after dosing, n = 3) was 995 ng/mL and the level at 5 h (160 mg, 160 mg SC, day 18 cycle 1, 5 h after dosing, n = 3) was 577 ng/mL. It also gave a level at 0.5 h (160 mg, 160 mg SC, day 18 cycle 2, 0.5 h after dosing, n = 1) of 1380 ng/mL, a level at 1 h (160 mg, 160 mg SC, day 18 cycle 2, 1 h after dosing, n = 1) of 1380 ng/mL and a level at 1.5 h (160 mg, 160 mg SC, day 18 cycle 2, 1.5 h after dosing, n = 1) of 1650 ng/mL. The level at 2 h (160 mg, 160 mg SC, day 18 cycle 2, 2 h after dosing, n = 1) was 1870 ng/mL, the level at 3.5 h (160 mg, 160 mg SC, day 18 cycle 2, 3.5 h after dosing, n = 1) was 870 ng/mL and the Tmax [5] was 1.52 h. It also gave a Tmax [8] of 2 h, an AUC(0-t) [9] of 5860 ng·h/mL and an AUC(0-t) [10] of 6630 ng·h/mL. The AUC(0-t) [11] was 5570 ng·h/mL, the AUC(0-t) [12] was 6110 ng·h/mL and the Cmax [9] was 1490 ng/mL. For the same sequence, the Cmax [10] was 1620 ng/mL, the Cmax [11] was 1670 ng/mL and the Cmax (200 mg, 200 mg SC, day 18 cycle 2, n = 2, CV not calculated) was 1890 ng/mL. The Cmax [12] was 1680 ng/mL, the level at 0.25 h (200 mg, 200 mg SC, n = 4) was 479 ng/mL and the level at 0.75 h (200 mg, 200 mg SC, n = 4) was 1040 ng/mL. The level at 1.5 h (200 mg, 200 mg SC, day 1 cycle 1, 1.5 h after dosing, n = 4) was 1240 ng/mL, the level at 2 h (200 mg, 200 mg SC, day 1 cycle 1, 2 h after dosing, n = 4) was 1370 ng/mL and the level at 3 h (200 mg, 200 mg SC, n = 4) was 1360 ng/mL. It also gave a level at 4 h (200 mg, 200 mg SC, n = 4) of 1050 ng/mL and a level at 5 h (200 mg, 200 mg SC, day 1 cycle 1, 5 h after dosing, n = 4) of 620 ng/mL.
